Assay results from ChEMBL document CHEMBL2074181, “Interactions of glycyrrhizin with organic anion transporting polypeptides of rat and human liver” (Hepatol Res, 2003).

Tests used:
[1] = biological target: T1, Solute carrier organic anion transporter family member 1B1 (Homo sapiens, UniProt Q9Y6L6); experiment: (§1) TP_TRANSPORTER: inhibition of E1S uptake in Xenopus laevis oocytes; assay type: functional, cell-based, Oocyte
T1 sequence (Q9Y6L6 whole entry): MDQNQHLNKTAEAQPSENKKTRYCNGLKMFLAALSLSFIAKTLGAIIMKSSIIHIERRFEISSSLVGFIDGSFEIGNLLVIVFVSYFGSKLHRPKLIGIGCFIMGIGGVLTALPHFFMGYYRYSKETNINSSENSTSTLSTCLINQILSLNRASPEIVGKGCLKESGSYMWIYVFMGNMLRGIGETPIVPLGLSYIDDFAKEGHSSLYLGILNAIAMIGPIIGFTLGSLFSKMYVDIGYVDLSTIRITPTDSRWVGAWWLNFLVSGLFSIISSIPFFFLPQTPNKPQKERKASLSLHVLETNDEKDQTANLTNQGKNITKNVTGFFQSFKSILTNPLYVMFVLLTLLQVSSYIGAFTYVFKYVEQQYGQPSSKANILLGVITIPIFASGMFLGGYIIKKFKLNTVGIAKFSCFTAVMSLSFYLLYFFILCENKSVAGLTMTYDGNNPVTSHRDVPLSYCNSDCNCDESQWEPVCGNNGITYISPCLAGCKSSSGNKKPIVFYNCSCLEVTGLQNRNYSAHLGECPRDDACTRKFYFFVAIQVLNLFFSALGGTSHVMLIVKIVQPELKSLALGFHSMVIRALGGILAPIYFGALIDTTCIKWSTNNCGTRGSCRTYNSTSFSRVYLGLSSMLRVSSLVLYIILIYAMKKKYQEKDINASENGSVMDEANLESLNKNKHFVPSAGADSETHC

[2] = biological target: T2, Solute carrier organic anion transporter family member 1B2 (Rattus norvegicus, UniProt Q9QZX8); experiment: as §1; assay type: functional, cell-based, Oocyte
T2 sequence (Q9QZX8 whole entry): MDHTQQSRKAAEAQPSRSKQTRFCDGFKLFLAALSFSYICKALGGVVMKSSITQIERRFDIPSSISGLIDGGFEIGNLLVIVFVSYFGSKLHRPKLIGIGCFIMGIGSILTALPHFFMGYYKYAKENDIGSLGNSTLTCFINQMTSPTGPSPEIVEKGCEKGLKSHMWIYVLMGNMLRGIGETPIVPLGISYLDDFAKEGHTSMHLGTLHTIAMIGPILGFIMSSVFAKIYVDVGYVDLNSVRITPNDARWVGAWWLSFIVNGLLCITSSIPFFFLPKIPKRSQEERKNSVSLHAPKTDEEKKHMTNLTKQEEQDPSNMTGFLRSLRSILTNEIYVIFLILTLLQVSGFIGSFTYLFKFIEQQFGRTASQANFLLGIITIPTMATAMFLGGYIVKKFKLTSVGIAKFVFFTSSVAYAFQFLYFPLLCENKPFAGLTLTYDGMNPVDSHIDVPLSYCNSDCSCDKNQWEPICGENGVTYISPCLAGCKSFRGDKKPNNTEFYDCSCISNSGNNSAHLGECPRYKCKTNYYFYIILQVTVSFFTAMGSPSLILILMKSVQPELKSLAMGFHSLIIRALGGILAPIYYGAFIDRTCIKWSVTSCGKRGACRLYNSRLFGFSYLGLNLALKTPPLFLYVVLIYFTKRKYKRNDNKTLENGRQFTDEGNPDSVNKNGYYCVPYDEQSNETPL

[3] = biological target: T3, Solute carrier organic anion transporter family member 1A1 (Rattus norvegicus, UniProt P46720); experiment: (§2) TP_TRANSPORTER: inhibition of E1S uptake (E1S: 0.05 uM, GL: 100 uM) in Xenopus laevis oocytes; assay type: functional, cell-based; design: scale not given: the % may be the effect or the level left; conditions: oocyte
T3 sequence (P46720 whole entry): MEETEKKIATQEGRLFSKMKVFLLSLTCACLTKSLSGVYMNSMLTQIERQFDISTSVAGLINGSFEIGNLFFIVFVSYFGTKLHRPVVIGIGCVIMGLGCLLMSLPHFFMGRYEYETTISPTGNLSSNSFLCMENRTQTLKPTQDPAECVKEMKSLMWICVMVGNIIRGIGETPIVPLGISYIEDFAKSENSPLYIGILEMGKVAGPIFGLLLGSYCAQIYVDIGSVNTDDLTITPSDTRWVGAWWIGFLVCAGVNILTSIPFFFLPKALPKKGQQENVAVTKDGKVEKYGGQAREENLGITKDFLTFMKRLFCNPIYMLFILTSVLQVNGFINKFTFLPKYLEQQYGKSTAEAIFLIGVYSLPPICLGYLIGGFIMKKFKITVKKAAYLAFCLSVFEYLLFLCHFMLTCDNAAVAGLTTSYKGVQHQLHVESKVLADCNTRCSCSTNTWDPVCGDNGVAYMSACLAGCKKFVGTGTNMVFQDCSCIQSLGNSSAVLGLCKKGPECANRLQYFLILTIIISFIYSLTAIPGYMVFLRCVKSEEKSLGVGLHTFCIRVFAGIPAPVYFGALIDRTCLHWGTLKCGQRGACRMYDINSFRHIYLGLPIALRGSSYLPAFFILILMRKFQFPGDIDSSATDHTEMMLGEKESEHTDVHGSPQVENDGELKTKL

[4] = biological target: T4, Solute carrier organic anion transporter family member 1A2 (Homo sapiens, UniProt P46721); experiment: TP_TRANSPORTER: inhibition of E1S uptake (E1S: 0.05 uM, GL: 100 uM) by Glycyrrhizic acid at a concentration of 100 u M in Xenopus laevis oocytes; assay type: functional, cell-based; conditions: oocyte
T4 sequence (P46721 whole entry): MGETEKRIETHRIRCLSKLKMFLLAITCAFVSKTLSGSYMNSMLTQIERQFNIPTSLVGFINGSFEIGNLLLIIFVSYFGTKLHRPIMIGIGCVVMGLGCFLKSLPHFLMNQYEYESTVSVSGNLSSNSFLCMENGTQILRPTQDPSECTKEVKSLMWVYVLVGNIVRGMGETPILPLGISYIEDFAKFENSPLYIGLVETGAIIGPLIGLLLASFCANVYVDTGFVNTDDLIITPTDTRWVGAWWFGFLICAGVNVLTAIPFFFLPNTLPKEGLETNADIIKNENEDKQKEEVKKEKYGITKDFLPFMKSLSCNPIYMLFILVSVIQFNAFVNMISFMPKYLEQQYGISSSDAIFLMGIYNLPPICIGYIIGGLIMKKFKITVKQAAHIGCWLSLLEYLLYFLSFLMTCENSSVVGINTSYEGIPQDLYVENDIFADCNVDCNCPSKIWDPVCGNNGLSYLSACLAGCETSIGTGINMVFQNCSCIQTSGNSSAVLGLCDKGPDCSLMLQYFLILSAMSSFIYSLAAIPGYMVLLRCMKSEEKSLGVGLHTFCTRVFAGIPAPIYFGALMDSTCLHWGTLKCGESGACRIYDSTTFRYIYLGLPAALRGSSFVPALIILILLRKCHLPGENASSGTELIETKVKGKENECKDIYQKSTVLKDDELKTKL

[5] = biological target: T5, Solute carrier organic anion transporter family member 2B1 (Homo sapiens, UniProt O94956); experiment: TP_TRANSPORTER: inhibition of E1S uptake (E1S: 0.05 uM, GL: 100 uM) of Glycyrrhizic acid at a concentration of 100 u M in Xenopus laevis oocytes; assay type: functional, cell-based; conditions: oocyte
T5 sequence (O94956 whole entry): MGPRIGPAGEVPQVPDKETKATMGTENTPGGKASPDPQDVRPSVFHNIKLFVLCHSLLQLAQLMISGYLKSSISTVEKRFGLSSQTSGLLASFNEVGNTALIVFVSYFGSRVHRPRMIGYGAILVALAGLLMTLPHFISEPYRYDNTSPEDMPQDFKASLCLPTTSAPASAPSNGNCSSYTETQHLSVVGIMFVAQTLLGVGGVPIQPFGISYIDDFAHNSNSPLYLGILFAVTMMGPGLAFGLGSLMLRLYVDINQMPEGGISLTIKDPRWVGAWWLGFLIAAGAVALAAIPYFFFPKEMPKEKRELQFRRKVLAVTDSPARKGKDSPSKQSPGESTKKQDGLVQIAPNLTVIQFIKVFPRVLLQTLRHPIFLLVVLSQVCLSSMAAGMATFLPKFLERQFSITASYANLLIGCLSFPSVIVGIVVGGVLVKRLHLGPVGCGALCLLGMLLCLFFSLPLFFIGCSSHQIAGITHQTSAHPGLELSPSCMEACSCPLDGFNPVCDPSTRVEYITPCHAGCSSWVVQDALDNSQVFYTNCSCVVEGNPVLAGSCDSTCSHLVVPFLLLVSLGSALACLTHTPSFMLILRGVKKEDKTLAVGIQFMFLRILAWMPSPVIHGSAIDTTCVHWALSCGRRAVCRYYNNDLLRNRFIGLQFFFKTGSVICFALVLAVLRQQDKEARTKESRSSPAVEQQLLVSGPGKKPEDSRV

[6] = biological target: T6, Solute carrier organic anion transporter family member 1B3 (Homo sapiens, UniProt Q9NPD5); experiment: TP_TRANSPORTER: inhibition of BSP uptake in Xenopus laevis oocytes; assay type: functional, cell-based, Oocyte
T6 sequence (Q9NPD5 whole entry): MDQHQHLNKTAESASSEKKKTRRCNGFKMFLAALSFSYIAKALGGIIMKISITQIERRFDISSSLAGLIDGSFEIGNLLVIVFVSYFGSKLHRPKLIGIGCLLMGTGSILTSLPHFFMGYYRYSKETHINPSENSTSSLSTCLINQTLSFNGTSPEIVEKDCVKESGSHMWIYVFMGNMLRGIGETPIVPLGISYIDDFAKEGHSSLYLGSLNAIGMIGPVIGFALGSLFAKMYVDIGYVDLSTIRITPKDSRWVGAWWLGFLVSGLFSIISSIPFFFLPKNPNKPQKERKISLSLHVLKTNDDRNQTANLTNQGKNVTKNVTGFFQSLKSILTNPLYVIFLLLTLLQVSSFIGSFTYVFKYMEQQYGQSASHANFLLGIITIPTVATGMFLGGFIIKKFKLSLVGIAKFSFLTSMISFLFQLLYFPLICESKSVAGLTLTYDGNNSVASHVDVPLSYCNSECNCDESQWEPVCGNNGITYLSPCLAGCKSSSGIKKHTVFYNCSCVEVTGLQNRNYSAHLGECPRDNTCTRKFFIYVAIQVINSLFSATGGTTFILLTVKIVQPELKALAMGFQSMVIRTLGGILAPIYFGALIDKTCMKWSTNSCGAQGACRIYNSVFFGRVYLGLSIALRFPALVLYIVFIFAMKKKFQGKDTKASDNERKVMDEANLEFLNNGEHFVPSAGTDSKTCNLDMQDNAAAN

[7] = biological target: T7, Solute carrier organic anion transporter family member 1B3 (OATP1B3) (Homo sapiens, UniProt Q9NPD5); experiment: as §2; assay type: functional, cell-based, Oocyte; design: scale not given: the % may be the effect or the level left; conditions: Xenopus laevis oocytes expressing OATP1B3, probe E1S (0.05 uM), read-out: Activity
T7 sequence (Q9NPD5 whole entry): T6 sequence (Q9NPD5 whole entry)

[8] = biological target: T8, Solute carrier organic anion transporter family member 1A5 (OATP1A5) (Rattus norvegicus, UniProt O88397); experiment: as §2; assay type: functional, cell-based, Oocyte; design: scale not given: the % may be the effect or the level left; conditions: Xenopus laevis oocytes expressing OATP1A5, probe E1S (0.05 uM), read-out: Activity
T8 sequence (O88397 whole entry): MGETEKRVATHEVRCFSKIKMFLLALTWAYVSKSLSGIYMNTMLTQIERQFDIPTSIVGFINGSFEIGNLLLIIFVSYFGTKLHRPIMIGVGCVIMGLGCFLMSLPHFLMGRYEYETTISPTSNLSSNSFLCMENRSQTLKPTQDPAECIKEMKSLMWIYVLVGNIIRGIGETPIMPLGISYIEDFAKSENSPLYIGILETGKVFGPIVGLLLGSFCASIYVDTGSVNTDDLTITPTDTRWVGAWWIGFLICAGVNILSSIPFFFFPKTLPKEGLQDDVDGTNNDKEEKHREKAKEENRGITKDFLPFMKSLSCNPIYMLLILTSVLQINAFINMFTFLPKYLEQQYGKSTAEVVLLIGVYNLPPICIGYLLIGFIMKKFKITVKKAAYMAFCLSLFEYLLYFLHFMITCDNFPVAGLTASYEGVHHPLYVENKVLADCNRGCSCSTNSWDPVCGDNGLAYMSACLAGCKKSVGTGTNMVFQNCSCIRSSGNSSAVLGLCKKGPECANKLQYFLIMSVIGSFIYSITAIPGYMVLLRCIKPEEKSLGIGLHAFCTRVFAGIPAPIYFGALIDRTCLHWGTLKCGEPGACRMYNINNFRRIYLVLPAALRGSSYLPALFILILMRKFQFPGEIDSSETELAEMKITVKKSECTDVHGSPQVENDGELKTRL

[9] = biological target: T9, Solute carrier organic anion transporter family member 1A4 (OATP1A4) (Rattus norvegicus, UniProt O35913); experiment: as §2; assay type: functional, cell-based, Oocyte; design: scale not given: the % may be the effect or the level left; conditions: Xenopus laevis oocytes expressing OATP1A4, probe E1S (0.05 uM), read-out: Activity
T9 sequence (O35913 whole entry): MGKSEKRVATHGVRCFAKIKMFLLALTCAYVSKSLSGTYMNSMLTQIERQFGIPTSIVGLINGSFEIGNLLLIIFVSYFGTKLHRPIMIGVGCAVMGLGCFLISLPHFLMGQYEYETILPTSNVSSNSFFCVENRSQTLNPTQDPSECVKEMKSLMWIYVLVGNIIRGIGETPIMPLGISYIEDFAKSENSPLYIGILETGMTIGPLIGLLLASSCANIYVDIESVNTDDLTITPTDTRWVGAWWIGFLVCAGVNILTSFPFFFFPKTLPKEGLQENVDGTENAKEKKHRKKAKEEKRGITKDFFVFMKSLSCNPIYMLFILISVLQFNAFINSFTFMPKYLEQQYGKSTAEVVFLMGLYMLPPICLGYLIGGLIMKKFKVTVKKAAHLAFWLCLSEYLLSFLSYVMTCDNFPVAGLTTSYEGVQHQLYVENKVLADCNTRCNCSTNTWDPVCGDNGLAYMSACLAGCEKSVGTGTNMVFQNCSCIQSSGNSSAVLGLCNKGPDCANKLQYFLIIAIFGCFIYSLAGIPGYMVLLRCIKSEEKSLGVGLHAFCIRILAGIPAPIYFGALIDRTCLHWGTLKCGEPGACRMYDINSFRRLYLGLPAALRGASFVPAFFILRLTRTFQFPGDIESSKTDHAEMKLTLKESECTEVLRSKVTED

CC1(C)[C@@H](O[C@H]2O[C@H](C(=O)O)[C@@H](O)[C@H](O)[C@H]2O[C@@H]2O[C@H](C(=O)O)[C@@H](O)[C@H](O)[C@H]2O)CC[C@]2(C)[C@H]3C(=O)C=C4[C@@H]5C[C@@](C)(C(=O)O)CC[C@]5(C)CC[C@@]4(C)[C@]3(C)CC[C@@H]12 [GLYCYRRHIZIN]
Ki [1]: 15.9 µM | Ki [2]: 6.1 µM | Activity [3]: 52% | Activity [4]: is not an inhibitor [-] | Activity [5]: is not an inhibitor [-] | Ki [6]: 12.5 µM | activity at 100 µM [7]: 0% | activity at 100 µM [8]: 51% | activity at 100 µM [9]: 47%
